Data taken from ChEMBL document CHEMBL1126299, “Synthesis and structure-activity relationships of cephalosporins with C-3' catechol-containing residues” (J Med Chem, 1992).
≈ marks a conversion by molar mass, not a printed value.

Legend:
Escherichia coli [1] = test: microbe, parasite or virus in culture
Description: In vitro minimum inhibitory concentration against Escherichia coli (DC2 permeability mutant).

Citrobacter freundii [2] = test: microbe, parasite or virus in culture
Description: Minimum inhibitory concentration in Citrobacter freundii, I+382010 inducible type 1 lactamase producer

Staphylococcus aureus [3] = test: The compound was tested for minimum inhibitory concentration in Staphylococcus aureus,147N penicillin sensitive Staphylococcus aureus; format: functional
Staphylococcus aureus [4] = test: The compound was tested for minimum inhibitory concentration in Staphylococcus aureus Oxford penicillin sensitive Staphylococcus aureus; format: functional
Pseudomonas aeruginosa [5] = test: microbe, parasite or virus in culture
Description: Minimum inhibitory concentration in Pseudomonas aeruginosa,799/61 permeability mutant

Citrobacter freundii [6] = test: microbe, parasite or virus in culture; remark: listed apart in the source
Description: Minimum inhibitory concentration in Citrobacter freundii, DR 382031 constitutive depressed type 1

Enterobacter cloacae [7] = test: microbe, parasite or virus in culture
Description: Minimum inhibitory concentration in Enterobacter cloacae, P99- inducible type 1 lactamase producer

Enterobacter cloacae [8] = test: microbe, parasite or virus in culture; remark: listed apart in the source
Description: Minimum inhibitory concentration in Enterobacter cloacae, I+401029 inducible type 1 lactamase producer

Enterobacter cloacae [9] = test: microbe, parasite or virus in culture; remark: listed apart in the source
Description: Minimum inhibitory concentration in Enterobacter cloacae, DR 401108 constitutive depressed type 1 lactamase producer

Pseudomonas aeruginosa [10] = test: microbe, parasite or virus in culture; remark: listed apart in the source
Description: Minimum inhibitory concentration in Pseudomonas aeruginosa, 18SH constitutive depressed type 1 lactamase producer

Providencia stuartii [11] = test: microbe, parasite or virus in culture
Description: Minimum inhibitory concentration in Pseudomonas stuartii, DR 442049 constitutive depressed type 1 lactamase producer

Pseudomonas aeruginosa [12] = test: microbe, parasite or virus in culture; remark: listed apart in the source
Description: In vitro minimum inhibitory concentration against Pseudomonas aeruginosa (PU21).

Pseudomonas aeruginosa [13] = test: microbe, parasite or virus in culture; remark: listed apart in the source
Description: Minimum inhibitory concentration in Pseudomonas aeruginosa,799WT parent organism

Escherichia coli [14] = test: microbe, parasite or virus in culture; remark: listed apart in the source
Description: In vitro minimum inhibitory concentration against Escherichia coli (DC0 parent organism).

Pseudomonas aeruginosa [15] = test: microbe, parasite or virus in culture; remark: listed apart in the source
Description: Minimum inhibitory concentration in Pseudomonas aeruginosa, 18S inducible type 1 lactamase producer

Enterobacter cloacae [16] = test: microbe, parasite or virus in culture; remark: listed apart in the source
Description: Minimum inhibitory concentration in Enterobacter cloacae, P99+ constitutive depressed type 1 lactamase producer

Providencia stuartii [17] = test: microbe, parasite or virus in culture; remark: listed apart in the source
Description: Minimum inhibitory concentration in Pseudomonas stuartii, I+442019 inducible type 1 lactamase producer

Staphylococcus aureus [18] = test: microbe, parasite or virus in culture
Staphylococcus aureus [19] = test: microbe, parasite or virus in culture; remark: listed apart in the source
[20] = The half life period in marmosets; format: ADME; conditions: callithrix, in vivo
[21] = The compound was evaluated for area under the curve in marmosets; format: ADME; conditions: callithrix, in vivo

Description for physchem: The dissociation constant of compound was tested for beta-Lactamase stability

| SMILES | MIC (Escherichia coli [1]) | MIC (Citrobacter freundii [2]) | MIC (Pseudomonas aeruginosa [5]) | MIC (Citrobacter freundii [6]) | MIC (Enterobacter cloacae [7]) | MIC (Enterobacter cloacae [8]) | MIC (Enterobacter cloacae [9]) | MIC (Pseudomonas aeruginosa [10]) | MIC (Providencia stuartii [11]) | MIC (Pseudomonas aeruginosa [12]) | MIC (Pseudomonas aeruginosa [13]) | MIC (Escherichia coli [14]) | MIC (Pseudomonas aeruginosa [15]) | MIC (Enterobacter cloacae [16]) | MIC (Providencia stuartii [17]) | MIC (Staphylococcus aureus [18]) | MIC (Staphylococcus aureus [19]) | further results |
| --- | --- | --- | --- | --- | --- | --- | --- | --- | --- | --- | --- | --- | --- | --- | --- | --- | --- | --- |
| CC(C)(O/N=C(\C(=O)N[C@@H]1C(=O)N2C(C(=O)O)=C(CCCC(=O)c3cc(O)c(O)c(Cl)c3)CSC12)c1csc(N)n1)C(=O)O (some centres not stated) | 0.008 µg/mL (≈ 0.012 µM) | 0.008 µg/mL (≈ 0.012 µM) | 0.008 µg/mL (≈ 0.012 µM) | 2 µg/mL (≈ 2.99 µM) | 0.03 µg/mL (≈ 0.0449 µM) | 0.03 µg/mL (≈ 0.0449 µM) | > 32 µg/mL | 0.015 µg/mL (≈ 0.0225 µM) | 1 µg/mL (≈ 1.5 µM) | 0.015 µg/mL (≈ 0.0225 µM) | 0.008 µg/mL (≈ 0.012 µM) | 0.008 µg/mL (≈ 0.012 µM) | 0.008 µg/mL (≈ 0.012 µM) | 1 µg/mL (≈ 1.5 µM) | 0.03 µg/mL (≈ 0.0449 µM) |  |  | MIC (Staphylococcus aureus [3]): 16 µg/mL (≈ 23.9 µM); MIC (Staphylococcus aureus [4]): 16 µg/mL (≈ 23.9 µM) |
| Nc1nc(/C(=N/OC(C(=O)O)c2ccccc2)C(=O)N[C@@H]2C(=O)N3C(C(=O)O)=C(CNC(=O)c4cc(O)c(O)c(Br)c4)CSC23)cs1 (some centres not stated) | 0.008 µg/mL (≈ 0.0107 µM) | 0.008 µg/mL (≈ 0.0107 µM) | 0.008 µg/mL (≈ 0.0107 µM) | 4 µg/mL (≈ 5.35 µM) | 0.06 µg/mL (≈ 0.0803 µM) | 0.03 µg/mL (≈ 0.0401 µM) | > 128 µg/mL | 0.03 µg/mL (≈ 0.0401 µM) | 0.25 µg/mL (≈ 0.334 µM) | 0.015 µg/mL (≈ 0.0201 µM) | 0.015 µg/mL (≈ 0.0201 µM) | 0.008 µg/mL (≈ 0.0107 µM) | 0.008 µg/mL (≈ 0.0107 µM) | 2 µg/mL (≈ 2.68 µM) | 0.06 µg/mL (≈ 0.0803 µM) | 16 µg/mL (≈ 21.4 µM) | 16 µg/mL (≈ 21.4 µM) |  |
| CC(C)(O/N=C(\C(=O)N[C@@H]1C(=O)N2C(C(=O)O)=C(CCNC(=O)CNC(=O)c3cc(O)c(O)c(Br)c3)CSC12)c1csc(N)n1)C(=O)O (some centres not stated) | 0.015 µg/mL (≈ 0.0195 µM) | 0.015 µg/mL (≈ 0.0195 µM) | 0.008 µg/mL (≈ 0.0104 µM) | 8 µg/mL (≈ 10.4 µM) | 0.06 µg/mL (≈ 0.0779 µM) | 0.06 µg/mL (≈ 0.0779 µM) | > 32 µg/mL | 0.5 µg/mL (≈ 0.649 µM) | 4 µg/mL (≈ 5.19 µM) | 0.015 µg/mL (≈ 0.0195 µM) | 0.008 µg/mL (≈ 0.0104 µM) | 0.015 µg/mL (≈ 0.0195 µM) | 0.008 µg/mL (≈ 0.0104 µM) | 8 µg/mL (≈ 10.4 µM) | 0.125 µg/mL (≈ 0.162 µM) |  |  | MIC (Staphylococcus aureus [3]): 16 µg/mL (≈ 20.8 µM); MIC (Staphylococcus aureus [4]): 8 µg/mL (≈ 10.4 µM) |
| CCO/N=C(\C(=O)N[C@@H]1C(=O)N2C(C(=O)O)=C(CNC(=O)c3cn(CC)c4cc(O)c(O)cc4c3=O)CSC12)c1csc(N)n1 (some centres not stated) | 0.008 µg/mL (≈ 0.0122 µM) | 0.008 µg/mL (≈ 0.0122 µM) | 0.008 µg/mL (≈ 0.0122 µM) | 0.5 µg/mL (≈ 0.76 µM) | 0.03 µg/mL (≈ 0.0456 µM) | 0.015 µg/mL (≈ 0.0228 µM) | 32 µg/mL (≈ 48.7 µM) | 0.25 µg/mL (≈ 0.38 µM) | 2 µg/mL (≈ 3.04 µM) | 0.06 µg/mL (≈ 0.0912 µM) | 0.015 µg/mL (≈ 0.0228 µM) | 0.008 µg/mL (≈ 0.0122 µM) | 0.008 µg/mL (≈ 0.0122 µM) | 1 µg/mL (≈ 1.52 µM) | 0.06 µg/mL (≈ 0.0912 µM) | 2 µg/mL (≈ 3.04 µM) | 1 µg/mL (≈ 1.52 µM) |  |
| CCO/N=C(\C(=O)N[C@@H]1C(=O)N2C(C(=O)O)=C(CNC(=O)c3cc(O)c(O)c(Br)c3)CSC12)c1csc(N)n1 (some centres not stated) | 0.008 µg/mL (≈ 0.0125 µM) | 0.008 µg/mL (≈ 0.0125 µM) | 0.008 µg/mL (≈ 0.0125 µM) | 16 µg/mL (≈ 24.9 µM) | 0.015 µg/mL (≈ 0.0234 µM) | 0.03 µg/mL (≈ 0.0468 µM) | 128 µg/mL (≈ 200 µM) | 4 µg/mL (≈ 6.24 µM) | 4 µg/mL (≈ 6.24 µM) | 0.06 µg/mL (≈ 0.0935 µM) | 0.015 µg/mL (≈ 0.0234 µM) | 0.008 µg/mL (≈ 0.0125 µM) | 0.008 µg/mL (≈ 0.0125 µM) | 8 µg/mL (≈ 12.5 µM) | 0.125 µg/mL (≈ 0.195 µM) | 2 µg/mL (≈ 3.12 µM) | 4 µg/mL (≈ 6.24 µM) | pKa (physchem): 6.9; half-life [20]: 40.2 min; AUC [21]: 16.97 mg/h/L |
| CCN(CC1=C(C(=O)O)N2C(=O)[C@@H](NC(=O)/C(=N\OC(C)(C)C(=O)O)c3csc(N)n3)C2SC1)C(=O)c1cc(O)c(O)c(Cl)c1 (some centres not stated) |  | 0.008 µg/mL (≈ 0.0117 µM) | 0.008 µg/mL (≈ 0.0117 µM) | 1 µg/mL (≈ 1.46 µM) | 0.125 µg/mL (≈ 0.183 µM) | 0.015 µg/mL (≈ 0.022 µM) | 1 µg/mL (≈ 1.46 µM) | 0.06 µg/mL (≈ 0.0878 µM) | 8 µg/mL (≈ 11.7 µM) |  | 0.008 µg/mL (≈ 0.0117 µM) |  | 0.008 µg/mL (≈ 0.0117 µM) | 1 µg/mL (≈ 1.46 µM) | 0.25 µg/mL (≈ 0.366 µM) |  |  | pKa (physchem): 7.4; half-life [20]: 52.2 min; AUC [21]: 16.4 mg/h/L |
| Nc1nc(/C(=N/OC2(C(=O)O)CCCC2)C(=O)N[C@@H]2C(=O)N3C(C(=O)O)=C(CNC(=O)c4cc(O)c(O)c(Br)c4)CSC23)cs1 (some centres not stated) | 0.008 µg/mL (≈ 0.011 µM) | 0.008 µg/mL (≈ 0.011 µM) | 0.008 µg/mL (≈ 0.011 µM) | 4 µg/mL (≈ 5.51 µM) | 0.03 µg/mL (≈ 0.0413 µM) | 0.03 µg/mL (≈ 0.0413 µM) | 16 µg/mL (≈ 22.1 µM) | 0.008 µg/mL (≈ 0.011 µM) | 2 µg/mL (≈ 2.76 µM) | 0.015 µg/mL (≈ 0.0207 µM) | 0.008 µg/mL (≈ 0.011 µM) | 0.008 µg/mL (≈ 0.011 µM) | 0.015 µg/mL (≈ 0.0207 µM) | 2 µg/mL (≈ 2.76 µM) | 0.03 µg/mL (≈ 0.0413 µM) | 16 µg/mL (≈ 22.1 µM) | 32 µg/mL (≈ 44.1 µM) |  |
| CCOC(=O)c1nc2cc(O)c(O)cc2nc1C(=O)NCC1=C(C(=O)O)N2C(=O)[C@@H](NC(=O)/C(=N\OC(C)(C)C(=O)O)c3csc(N)n3)C2SC1 (some centres not stated) |  | 0.008 µg/mL (≈ 0.0107 µM) | 0.008 µg/mL (≈ 0.0107 µM) | 0.06 µg/mL (≈ 0.0806 µM) | 0.03 µg/mL (≈ 0.0403 µM) | 0.03 µg/mL (≈ 0.0403 µM) | 0.5 µg/mL (≈ 0.671 µM) | 0.015 µg/mL (≈ 0.0201 µM) | 2 µg/mL (≈ 2.69 µM) |  | 0.008 µg/mL (≈ 0.0107 µM) |  | 0.008 µg/mL (≈ 0.0107 µM) | 0.06 µg/mL (≈ 0.0806 µM) | 0.06 µg/mL (≈ 0.0806 µM) |  |  |  |
